Measurements published in patent US20240150302A1, “6-METHYLURACIL DERIVATIVES WITH ANTICHOLINESTERASE ACTIVITY AND THEIR USE” (priority 2021, published 2024).

Key:
mice of the CD-1 line [1] = details: in mice, i.p.; prior-art free base; cited from earlier work
[2] = tested on: transgenic mice of the B6C3-Tg(APP695)85Dbo Tg(PSENI)85Dbo genotype; details: 5 mg/kg daily intraperitoneal, RU patent No. 2565756; cited from earlier work
mice of the CD-1 line [3] = assay: General toxic effect (LD50) in mice; details: for LD50 (in mice, i.p.): intraperitoneal; for LD50 (in mice, p.o.): oral; for Times less toxic than donepezil hydrochloride, oral: ratio of LD50, administered orally; for Times less toxic than donepezil hydrochloride, intraperitoneal / Times less toxic than the free base: ratio of LD50, intraperitoneal
Description: Ed. A. N. Mironova] on mice of the CD-1 line (“Puschino” Nursery, Moscow Region), both males and females, weighing 19.0±2.0 g, kept on a standard diet in the day/night lighting regimen (12 hours) at 22° C.

[4] = Solubility in water and organic solvents; assay type: physicochemical
[5] = tested on: transgenic mice of the B6C3-Tg(APP695)85Dbo Tg(PSENI)85Dbo genotype; assay: Number of amyloid plaques in the cortex, Thioflavin S staining of brain sections; assay type: in vivo; details: administered orally
Description: The line was purchased at The Jackson Laboratory (USA) and kept in the “Pushchino” nursery for laboratory animals Pushchino, Moscow Region). At the beginning of the research, the age of the transgenic mice was 9 months.
(§1) An equivalent amount of water (Water (Tg+)) was orally administered to control groups of transgenic mice.
Amyloid-beta deposits were evaluated after sacrifice on mouse brain sections (20 μm) using the Thioflavin S fluorescent dye and the Olympus BX51W1 fluorescence microscope, by the method described in the article [http://library.med.utah.edu/WebPath/histhtml/manuals/manuals.html].
The line was purchased at The Jackson Laboratory (USA) and kept in the “Pushchino” nursery for laboratory animals Pushchino, Moscow Region). At the beginning of the research, the age of the transgenic mice was 8 months.
as §1

[6] = tested on: transgenic mice with genotype B6C3-Tg(APP695)85Dbo Tg(PSENI)85Dbo; assay: "Rewarded alternation" test in a T-maze, genetic model of Alzheimer's disease; assay type: in vivo; details: administered orally, compared with healthy animals
Excerpt: At the beginning of the research, the age of the transgenic mice was 9 months.
At the beginning of the research, the age of the transgenic mice was 8 months.

CCN(CCCCCn1c(C)cc(=O)n(CCCCCN(CC)Cc2ccccc2[N+](=O)[O-])c1=O)Cc1ccccc1[N+](=O)[O-] [1,3-bis[5-(ortho-nitrobenzyl-ethylamino)pentyl-1]-6-methyluracil, reference compound]
LD50 (background statement) (mice of the CD-1 line [1]): 51.48 mg/kg | Reduction of the number of amyloid deposits in the cerebral cortex [2]: 50% | LD50 (in mice, i.p.) (mice of the CD-1 line [3]): 51 mg/kg | Solubility [4]: insoluble in water

Br.Br.CCN(CCCCCn1c(C)cc(=O)n(CCCCCN(CC)Cc2ccccc2[N+](=O)[O-])c1=O)Cc1ccccc1[N+](=O)[O-] [Compound (1), 1,3-bis[5-(ortho-nitrobenzylethylamino)pentyl]-6-methyluracil dihydrobromide]
Effect on the number of amyloid plaques in the cortex [5]: more effective product for prevention of the formation of amyloid plaque than donepezil hydrochloride | LD50 (in mice, i.p.) (mice of the CD-1 line [3]): 199 mg/kg | LD50 (in mice, p.o.) (mice of the CD-1 line [3]): 520 mg/kg | Times less toxic than donepezil hydrochloride, oral (mice of the CD-1 line [3]): 12 times | Times less toxic than donepezil hydrochloride, intraperitoneal (mice of the CD-1 line [3]): 40 times | Times less toxic than the free base (mice of the CD-1 line [3]): ~4 times | Solubility [4]: soluble in chloroform, dimethylformamide, dimethyl sulfoxide, ethyl alcohol, and water | Correction of memory impairment [6]: effective for correction of memory impairment

CCN(CCCCCn1c(C)cc(=O)n(CCCCCN(CC)Cc2ccccc2[N+](=O)[O-])c1=O)Cc1ccccc1[N+](=O)[O-].Cl.Cl [Compound (2), 1,3-bis[5-(ortho-nitrobenzylethylamino)pentyl]-6-methyluracil dihydrochloride]
Effect on the number of amyloid plaques in the cortex [5]: more effective than donepezil hydrochloride for preventing the formation of amyloid plaques | LD50 (in mice, i.p.) (mice of the CD-1 line [3]): 150 mg/kg | LD50 (in mice, p.o.) (mice of the CD-1 line [3]): 290 mg/kg | Times less toxic than donepezil hydrochloride, oral (mice of the CD-1 line [3]): 6 times | Times less toxic than donepezil hydrochloride, intraperitoneal (mice of the CD-1 line [3]): 30 times | Times less toxic than the free base (mice of the CD-1 line [3]): ~3 times | Solubility [4]: soluble in dimethylformamide, dimethyl sulfoxide, ethyl alcohol, and water | Correction of memory impairment [6]: effective for correcting memory impairment
